The values that follow come from BindingDB's records for doi:10.1016/j.bmcl.2016.09.047 (Boehringer Ingelheim Pharmaceuticals, 2016).

A short description of assay [1]: Antagonist activity at human CCR10 expressed in mouse BA/F3 cells assessed as inhibition of human CCL27-dependent chemotaxis.
Assay [2] deals with T1, C-C chemokine receptor type 10 (Homo sapiens, UniProt P46092).
T1 sequence (P46092 whole entry): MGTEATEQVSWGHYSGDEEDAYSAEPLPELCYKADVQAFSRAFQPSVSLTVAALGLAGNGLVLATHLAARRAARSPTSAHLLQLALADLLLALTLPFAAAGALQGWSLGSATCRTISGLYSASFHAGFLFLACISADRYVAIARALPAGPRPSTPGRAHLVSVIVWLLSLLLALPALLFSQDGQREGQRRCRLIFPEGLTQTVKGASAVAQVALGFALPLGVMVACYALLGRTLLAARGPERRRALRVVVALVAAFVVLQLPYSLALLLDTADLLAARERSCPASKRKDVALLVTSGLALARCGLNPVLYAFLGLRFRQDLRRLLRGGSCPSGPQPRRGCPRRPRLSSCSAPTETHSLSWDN
Briefly: Antagonist activity at human CCR10 expressed in mouse BA/F3 cells assessed as inhibition of human CCL27-dependent chemotaxis.

The structures appear in SMILES notation. Values joined by “and” are separate entries in the source; they are usually repeats but may differ in a detail not shown here. Equal values may be shown once.

For `CC1CCN(C(=O)C(CCn2ccnc2[N+](=O)[O-])NS(=O)(=O)c2cc(Cl)c(N)c(Cl)c2)CC1` (centres undefined), the IC50 (usually the point on the concentration scale where inhibition reaches its midpoint) in assay [1] is 0.053 µM and 0.05 µM.

Turning to `CC1CCN(C(=O)C(CCn2cccc2C#N)NS(=O)(=O)c2cc(Cl)c(N)c(Cl)c2)CC1` (centres undefined), in assay [2], the IC50 was 0.016 µM.

For the compound `CC1CCN(C(=O)C(CCn2cccc2C#N)NS(=O)(=O)c2ccc3[nH]ccc3c2)CC1` (centres undefined), the 50% inhibitory concentration (IC50) in assay [1] was 0.013 µM.

Turning to `CC1CCN(C(=O)C(CCn2ccnc2Cl)NS(=O)(=O)c2cc(Cl)c(N)c(Cl)c2)CC1` (centres undefined), the half-maximal inhibitory concentration (IC50) in assay [1] turned out to be 0.251 µM.

With `CC1CCN(C(=O)[C@@H](CCc2ccccc2)NS(=O)(=O)c2cc(Cl)c(N)c(Cl)c2)CC1`, the half-inhibitory concentration (IC50) in assay [1] was determined as 0.501 µM.

As for `CC1CCN(C(=O)C(CCn2nccn2)NS(=O)(=O)c2cc(Cl)c(N)c(Cl)c2)CC1` (centres undefined), the half-inhibitory concentration (IC50) in assay [1] amounted to 1.26 µM.

`CC1CCN(C(=O)C(CCn2cccn2)NS(=O)(=O)c2cc(Cl)c(N)c(Cl)c2)CC1` (centres undefined): in assay [1], the IC50 stood at 1.26 µM.

For the compound `Cc1ccc(S(=O)(=O)NC(CCn2cccc2C#N)C(=O)N2CCC(C)CC2)c(C)c1N` (centres undefined), the IC50 in assay [1] worked out at 0.079 µM.

For the compound `CC1CCN(C(=O)C(CCn2cccc2C#N)NS(=O)(=O)c2ccc3cc[nH]c3c2)CC1` (centres undefined), the 50% inhibitory concentration (IC50) in assay [1] was determined as 0.016 µM.
